Laboratory results as given in PMC4710668, “Bioactivation of food genotoxicants 5-hydroxymethylfurfural and furfuryl alcohol by sulfotransferases from human, mouse and rat: a comparative study” (Archives of Toxicology, 2014).

Assays:
mSult1b1 = molecular target: T1, mSult1b1 (Mus musculus, UniProt Q9QWG7); assay: HMF sulfoconjugation assay; type: biochemical
T1 construct: made in house; host or cells: Salmonella typhimurium TA1538 (cytosolic fraction, enzyme not purified)
In short: (§1)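 Cytosols of S. typhimurium TA1538 expressing single SULT forms (25–200 µg protein) were incubated with varied HMF, 50 µM PAPS, 5 mM MgCl2 in 50 mM potassium phosphate pH 7.4 at 37 °C for 30 min. SMF formed was quantified by UPLC-MS/MS against an external calibration line.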

rSult2a1 = molecular target: T2, rSult2a1 (Rattus norvegicus, UniProt P15709); assay: HMF sulfoconjugation assay; type: biochemical
T2 construct: made in house; host or cells: Salmonella typhimurium TA1538 (cytosolic fraction, enzyme not purified)
T2 sequence (P15709 1-284): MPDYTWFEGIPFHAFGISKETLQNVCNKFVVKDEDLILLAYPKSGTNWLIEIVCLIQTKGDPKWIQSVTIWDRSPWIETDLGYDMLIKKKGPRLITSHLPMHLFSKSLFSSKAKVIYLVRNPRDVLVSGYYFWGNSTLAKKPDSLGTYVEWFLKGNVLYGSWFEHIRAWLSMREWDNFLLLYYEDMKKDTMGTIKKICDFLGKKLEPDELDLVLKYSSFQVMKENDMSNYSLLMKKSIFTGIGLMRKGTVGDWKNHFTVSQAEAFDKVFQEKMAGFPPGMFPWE
In short: as §1

[1] = set-up: method as in Monien et al. [2009]; details: 100 mg HMF/kg body weight administered to mice; ref Monien et al. [2009]; cited from earlier work

T1 sequence (Q9QWG7 whole entry): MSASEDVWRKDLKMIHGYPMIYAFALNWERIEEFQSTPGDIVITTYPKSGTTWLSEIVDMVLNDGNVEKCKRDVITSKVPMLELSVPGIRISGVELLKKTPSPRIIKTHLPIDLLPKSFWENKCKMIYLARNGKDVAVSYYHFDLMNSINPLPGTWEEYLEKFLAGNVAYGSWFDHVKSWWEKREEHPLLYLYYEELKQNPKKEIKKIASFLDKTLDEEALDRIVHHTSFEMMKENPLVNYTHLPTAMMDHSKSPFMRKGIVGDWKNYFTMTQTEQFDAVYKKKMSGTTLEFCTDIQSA

O=Cc1ccc(CO)o1 [HMF, 5-Hydroxymethylfurfural]
Rate of sulfoconjugation (mSult1b1; 0.1 mM HMF): 0.9 ± 0.1 pmol/mg/min
Rate of sulfoconjugation (mSult1b1; 1 mM HMF): 8.2 ± 0.1 pmol/mg/min
Rate of sulfoconjugation (mSult1b1; 10 mM HMF): 66.2 ± 6.8 pmol/mg/min
Rate of sulfoconjugation (mSult1b1; 100 mM HMF): 64.4 ± 5.0 pmol/mg/min
K M (mSult1b1; HMF sulfoconjugation, Michaelis-Menten fit): 9.5 ± 1.1 mM
Rate of sulfoconjugation (rSult2a1; 0.1 mM HMF): <0.5 pmol/mg/min
Rate of sulfoconjugation (rSult2a1; 1 mM HMF): 1.8 ± 0.1 pmol/mg/min
Rate of sulfoconjugation (rSult2a1; 10 mM HMF): 17.2 ± 0.6 pmol/mg/min
Rate of sulfoconjugation (rSult2a1; 100 mM HMF): 58.9 ± 4.6 pmol/mg/min
fraction of dose converted to SMF [1]: 500 ppm
